From PMC5035034, “Carbohydrate-Binding Non-Peptidic Pradimicins for the Treatment of Acute Sleeping Sickness in Murine Models” (PLoS Pathogens, 2016)

Molecular target: T1, VSG221 (variant surface glycoprotein 221, MITat 1.2) (Trypanosoma brucei, UniProt P26332)
T1 construct: soluble form VSG (sVSG) purified from parental bloodstream forms, N-glycosylated (Asn263, Asn428)
Assay: SPR (Biacore T200) on immobilized VSG221, […]; supported by HHA-FITC and CV-N-FITC competition on live parasites
Assay type: binding

CN[C@@H]1[C@H](O[C@@H]2O[C@H](CO)[C@@H](O)[C@H](OS(=O)(=O)O)[C@H]2O)[C@@H](O)[C@H](O[C@H]2c3cc(C)c(C(=O)N[C@H](C)C(=O)O)c(O)c3-c3c(cc4c(c3O)C(=O)c3cc(OC)cc(O)c3C4=O)[C@@H]2O)O[C@@H]1C [PRM-S, pradimicin S]
SPR (Biacore T200) on immobilized VSG221, 1.56 to 50 uM; supported by HHA-FITC a: A significant concentration-dependent binding to the parental Tb BSF VSG221-bound sensorchip was observed
